Results as given in US7250269B2, “Composition for assaying glycoprotein” (Asahi Kasei Pharma Corporation, priority 2001, dated 2007).
Like-named read-outs stand apart in the source and are kept apart here.

Experiments:
[1] = test system: heat-stable type ascorbic acid oxidase (ASO-312); assay: Effect of buffer agent types on stabilization of ascorbic acid oxidase ASO-312 in the presence of protease; format: biochemical; details: pH 8.0, stored two days at room temperature
Procedure: 1 ml of the above mixed reaction reagent is placed in a small test tube and preheated at 30° C. for five minutes, then 0.10 ml of an appropriately diluted enzyme solution is added. The mixture is stirred to initiate the reaction. After the reaction for exactly 5 minutes, 3.0 ml of 0.2 N hydrochloric acid aqueous solution is added to terminate the reaction. Absorbance (As) at a wavelength of 245 nm is measured. For the blank test, 1 ml of the above reaction solution is placed in a small test tube and preheated at 30° C. for five minutes, then 3.0 ml of 0.2 N hydrochloric acid aqueous solution is added to terminate the reaction. 0.10 ml of an appropriately diluted enzyme solution is added and the mixture is stirred to measure the absorbance (Ab) at a wavelength of 245 nm. The enzyme activity is determined from the difference (Ab-As) between the absorbance (As) after the enzyme reaction and the blank test absorbance (Ab). The amount of enzyme oxidizing 1 μmol of ascorbic acid into dehydroascorbic acid in one minute at 30° C. is defined as 1 U. The calculation formula is shown below. Activity (U/ml)=[(Ab−As)/10.0]×[⅕]×[4.10/0.10]×[1/B] • 10.0: Molecular absorbance coefficient (mM) of ascorbic acid at 245 nm under the conditions of pH 1.0. • 5: Reaction time (min) • 4.10: Total reaction solution (ml) • 0.10: Amount of enzyme sample solution used for the reaction • B: Dilution magnification of the enzyme solution
The above reaction solutions were prepared using various buffer agents. A portion of each solution was used as a control after measuring the ascorbic acid oxidase activity. The above-described <<Method for Measuring the Activity of Ascorbic Acid Oxidase (ASOx)>> was employed for the activity measurement. The remaining portion of reaction solutions was stored for two days at room temperature, and the activity was measured in the same manner. The ratio of the activity after storage for two days at room temperature to the activity of the control was calculated to compare the stability of ascorbic acid oxidases.

Ascorbic acid oxidase = biological target: T1, Ascorbic acid oxidase (Cucurbita maxima, UniProt P24792); details: R-1 stored 24 hours at room temperature; FIG. 4
T1 sequence (P24792 31-579): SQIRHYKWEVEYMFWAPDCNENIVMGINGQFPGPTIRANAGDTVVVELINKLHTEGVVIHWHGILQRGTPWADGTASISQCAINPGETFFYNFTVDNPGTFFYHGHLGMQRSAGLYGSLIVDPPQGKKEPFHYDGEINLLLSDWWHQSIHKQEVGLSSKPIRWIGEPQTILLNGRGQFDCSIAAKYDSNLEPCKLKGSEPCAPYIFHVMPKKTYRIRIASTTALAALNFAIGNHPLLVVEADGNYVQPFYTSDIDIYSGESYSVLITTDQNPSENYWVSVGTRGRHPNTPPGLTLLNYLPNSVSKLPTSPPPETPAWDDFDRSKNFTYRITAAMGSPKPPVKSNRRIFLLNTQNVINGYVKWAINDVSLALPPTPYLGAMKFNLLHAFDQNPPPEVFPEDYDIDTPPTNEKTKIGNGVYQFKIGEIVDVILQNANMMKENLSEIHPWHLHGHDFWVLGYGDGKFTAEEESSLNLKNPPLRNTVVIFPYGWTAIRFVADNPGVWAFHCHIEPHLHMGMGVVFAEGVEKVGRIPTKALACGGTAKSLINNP
Procedure: An ascorbic acid-addition substrate solution was prepared by adding one volume of ascorbic acid (1 g/dl) (manufactured by Kokusan Chemical Co., Ltd.) to nine volume of human pool blood serum. A solution prepared by adding distilled water instead of ascorbic acid was used as a control substrate solution.
8 μl of the control substrate solution or ascorbic acid-addition substrate solution was added to 240 μl of R-1 incubated at 37° C. The reaction was initiated at 37° C. and exactly 5 minutes thereafter 80 μl of R-2 was added. Absorbance at 555 nm was measured before the addition of R-2 and five minutes after the addition of R-2. ΔA0 was calculated by subtracting the absorbance change obtained from a blank sample using distilled water instead of the substrate solution from the absorbance change obtained from the absorbance measurement on the control substrate solution and ascorbic acid-addition substrate solution. The same reaction solution R-1 was stored at room temperature for 24 hours, and the absorbance was measured in the same manner to calculate ΔA24. The ratio of ΔA0 and ΔA24 obtained from the ascorbic acid-addition substrate solution was calculated assuming the absorbance change obtained from the control substrate solution as 100.

[2] = biological target: T2, Ascorbic acid oxidase (ASO-311) (Cucurbita maxima, UniProt P24792); details: pH 8.0, stored two days at room temperature
T2 sequence (P24792 31-579): T1 sequence (P24792 31-579)

ASOx = assay: Storage of ASOx with protease in HEPES buffer solution pH 8.0 (inventors' investigation); format: biochemical; details: pH 8.0, protease and ASOx present
Protease type-XXIV [3] = assay: Screening of globulin component-selective protease inhibitors (HSA substrate with/without γ-globulin); format: biochemical, Bacillus; details: control 23.8
Source text: Using protease type-XXIV (manufactured by Sigma-Aldrich Co.) having high reactivity with the HSA substrate solution, components that decrease the protease reaction with the above globulin substrate solutions were screened based on the HSA substrate solution.
In the R-1 proteolytic reagent, as the deoxycholic acid amide, bisgluconamidopropyldeoxycholamide was used; as the cholic acid amide, 3-[(3-cholamidopropyl)dimethvlammonio]propane sulfonic acid, 3-[(3-cholamidopropyl)dimethylammonio]-2-hydroxypropane sulfonic acid, or bisgluconamidopropylcholamide was used; as the quaternary ammonium salt, benzyltriethylan chloride or benzyltri-n-butylammonium chloride was used; and as quatemary ammonium salt-type cationic surfactant, lauryltrimethylammonium chloride or lauryldimethylamine oxide was used.
• 1. HSA substrate solution: Albumin Human: 40 mg/ml, GA %=10.5% [manufactured by Wako Pure Chemical Industries, Ltd., the albumin concentration in the substrate solution was assayed using an albumin assay kit (albumin II-HA Test Wako; manufactured by Wako Pure Chemical Industries, Ltd.). GA % was assayed using a glycated albumin analyzer (GAA-2000, manufactured by ARKRAY, Inc.). • 2. γ-globulin addition substrate solution, 17.0 mg/ml of γ-globulin [γ-Globulins Human (manufactured by Sigma-Aldrich Co.), Fructosamine value=34 μM] was added to the above HSA substrate solution. <Reaction Procedure>
Absorbances at a wavelength of 546 nm were measured before and after the addition of R-2. The difference of the two measurements was regarded as the absorbance change. The same procedure was conducted using distilled water instead of the substrate to prepare a blank sample. In addition, a reaction solution without the addition of the globulin-selective protease inhibitor was used as a control.
ΔA (HSA) was calculated by subtracting the absorbance change of the blank sample from the absorbance change obtained for the HSA substrate solution. ΔA(+γ-globulin) was calculated by subtracting the absorbance change of the blank sample from the absorbance change obtained for the substrate solution to which γ-globulin was added. Effect of γ-globulin addition=(ΔA(+γ-globulin)−ΔA(HSA))/ΔA(HSA)×100(%)

Protease type-XXIV [4] = assay: Screening of globulin component-selective protease inhibitors using Hb substrate solution; format: biochemical, Bacillus; details: Hb substrate solution instead of HSA
Procedure: The same measurement was conducted using the Hb substrate solution instead of the HSA substrate solution, provided that when the Hb substrate solution was used, proteins were removed using trichloroacetic acid after the reaction with R-1, then the residue was neutralized and R-2 was added.

Protease type-XXIV [5] = format: biochemical, Bacillus
Procedure: 5 g/dl HSA (LOT38H7601; manufactured by Sigma-Aldrich Co.)
(§1) 8 μl of a sample was added to 240 μl of the proteolytic reagent incubated at 37° C. […] A relative sensitivity for the experiment using the reagent containing a stabilizer to the experiment using the reagent not containing a stabilizer was calculated assuming that ΔA0obtained using the reagent not containing a stabilizer and used without storing is 100%.

R-FOD-II = assay: Stabilization of enzyme reacting at least with glycated amino acid; format: biochemical; details: for stabilization effect on glycated amino acid assay reagent (relative sensitivity): stored at 37° C. for two days, without stabilizer 30%, FIG. 6
Procedure: as §1, with “ΔA0 obtained” for “ΔA0obtained”

[6] = FOD enzyme activity / substrate specificity on glycated lysine; format: biochemical; details: glycated lysine / glycated valine
Procedure: 164 strains of mutant colonies obtained in Example 15 were cultured for 16 hours at 30° C. in 1.5 ml of a 3.7% BHI liquid medium (manufactured by DIFCO Co.) containing 50 μg/ml of ampicillin and 1 mM of IPTG. 1 ml of the culture broth was centrifuged (15,000 G for one minute at 4° C.) to collect cells. 200 μl of 10 mM Tris-HCl buffer solution (pH 8.0) was added to the collected cells. After crushing the cells using an ultrasonic breaker, the mixture was centrifuged (14,000 G for five minutes at 4° C.) to obtain a cell extract as a supernatant.
The glycated amino acid substrate specificity of FOD-mutated recombinant contained in the cell extract prepared in Example 16 was measured using the above-mentioned FOD enzyme activity measuring method.
Synthesis of an oligonucleotide having the base sequence of 1-27 in the sequence table Sequence ID No. 7 was consigned to an outside source (BEX Co., Ltd.). The oligonucleotide was subjected to the site-directed mutagenesis using the Mutan-K kit (manufactured by Takara Shuzo Co., Ltd.) according to the manual attached to the kit. The mutant gene obtained was incorporated again into the expression plasmid pTV119N, introduced into Escherichia coli host, and cultured at 30° C. for 16 hours in a 3.7% BHI liquid medium containing 50 μg/ml of ampicillin and 1 mM of IPTG to produce mutant FOD protein.

[7] = stored in a liquid state in a refrigerator
[8] = stored at 37° C. for 24 hours, without stabilizer 60%, FIG. 5

O=S(=O)(O)CCN1CCN(CCO)CC1 [HEPES]
Relative activity (%) ASO-312 ([1]; Pronase): 37%
Relative activity (%) ASO-312 ([1]; Protease type XXIV): 34%
ascorbic acid eliminating capability after storing (Ascorbic acid oxidase): almost no ascorbic acid eliminating capability
Relative activity (%) ASO-311 ([2]; Pronase): 17%
Relative activity (%) ASO-311 ([2]; Protease type XXIV): 31%
ascorbic acid treating capability after storage (ASOx; one day at 37° C.): lost almost entirely
ascorbic acid treating capability after storage (ASOx; two weeks at 10° C.): lost almost entirely

C[N+](C)(C)CC(=O)O [Betaine]
Effect of γ-globulin (%) (Protease type-XXIV [3]; additive concentration 0.10%): 7.6%
effect of inhibiting a protease reaction with globulin (Protease type-XXIV [4]): effect of inhibiting a protease reaction with globulin

CCO [EtOH, Ethanol]
stabilization effect on proteolytic reagent (relative sensitivity) (Protease type-XXIV [5]): stabilization effect

NCC(=O)O [glycine, Glycine]
decrease in performance of glycated amino acid assay reagent (R-FOD-II; storage for four weeks at 37° C.): almost no decrease in performance
stabilization effect on glycated amino acid assay reagent (relative sensitivity) (R-FOD-II): stabilization effect
storage stability effect (R-FOD-II; [7]): one or more years
Kcat Reactivity ratio (a)/(b) [6]: 365

O=S(=O)(O)CC(O)CN1CCN(CC(O)CS(=O)(=O)O)CC1 (stereo not drawn) [POPSO]
Relative activity (%) ASO-312 ([1]; Pronase): 80%
Relative activity (%) ASO-312 ([1]; Protease type XXIV): 56%
ascorbic acid eliminating capability after storing (Ascorbic acid oxidase): no change
Relative activity (%) ASO-311 ([2]; Pronase): 80%
Relative activity (%) ASO-311 ([2]; Protease type XXIV): 62%

[Ca+2].[Cl-].[Cl-] [calcium chloride, Calcium chloride]
stabilization effect on glycated amino acid assay reagent (relative sensitivity) (R-FOD-II): stabilization effect
decrease in performance of proteolytic reagent (Protease type-XXIV [5]): almost no decrease in performance
stabilization effect on proteolytic reagent (relative sensitivity) (Protease type-XXIV [5]): stabilization effect
storage stability effect (Protease type-XXIV [5]): one year or more

trishydroxymethylaminomethane
Relative activity (%) ASO-312 ([1]; Pronase): 62%
Relative activity (%) ASO-312 ([1]; Protease type XXIV): 44%
ascorbic acid eliminating capability after storing (Ascorbic acid oxidase): no change
Relative activity (%) ASO-311 ([2]; Pronase): 55%
Relative activity (%) ASO-311 ([2]; Protease type XXIV): 52%

N=C(N)NCCC[C@H](N)C(=O)O [Reactive 327th amino acid Arginine]
Reactivity ratio, glycated lysine / glycated valine [6]: 440

O=S(=O)(O)CC(O)CN1CCN(CCO)CC1 (stereo not drawn) [HEPPSO]
Relative activity (%) ASO-312 ([1]; Pronase): 34%
Relative activity (%) ASO-312 ([1]; Protease type XXIV): 22%
ascorbic acid eliminating capability after storing (Ascorbic acid oxidase): almost no ascorbic acid eliminating capability
Relative activity (%) ASO-311 ([2]; Pronase): 14%
Relative activity (%) ASO-311 ([2]; Protease type XXIV): 37%

C[C@H](CCC(=O)NCCC[N+](C)(C)CCCS(=O)(=O)[O-])[C@H]1CC[C@H]2[C@@H]3[C@H](O)C[C@@H]4C[C@H](O)CC[C@]4(C)[C@H]3C[C@H](O)[C@]12C [3-[(3-cholamidopropyl)dimethylammonio]propane sulfonic acid]
Effect of γ-globulin (%) (Protease type-XXIV [3]; additive concentration 1.0%): 17.9%

[Cl-].[Na+] [sodium chloride, Sodium chloride]
stabilization effect on proteolytic reagent (relative sensitivity) (Protease type-XXIV [5]; [8]): stabilization effect

C[C@H](CCC(=O)N(CCCNC(=O)[C@H](O)[C@@H](O)[C@H](O)[C@H](O)CO)CCCNC(=O)[C@H](O)[C@@H](O)[C@H](O)[C@H](O)CO)[C@H]1CC[C@H]2[C@@H]3[C@H](O)C[C@@H]4C[C@H](O)CC[C@]4(C)[C@H]3C[C@H](O)[C@]12C [N,N-Bis(3-D-gluconamidopropyl)cholamido]
Effect of γ-globulin (%) (Protease type-XXIV [3]; additive concentration 1.0%): 21.0%

O=P(O)(O)O [Phosphoric acid, phosphoric acid]
Relative activity (%) ASO-312 ([1]; Pronase): 108%
Relative activity (%) ASO-312 ([1]; Protease type XXIV): 86%
Relative activity (%) ASO-311 ([2]; Pronase): 88%
Relative activity (%) ASO-311 ([2]; Protease type XXIV): 77%

CCCCCCCCO[C@@H]1O[C@H](CO)[C@@H](O)[C@H](O)[C@H]1O [Octylglucoside]
Effect of γ-globulin (%) (Protease type-XXIV [3]; additive concentration 1.0%): 18.5%

C[N+](C)(C)Cc1ccccc1.[Cl-] [Benzyltrimethylammonium chloride]
Effect of γ-globulin (%) (Protease type-XXIV [3]; additive concentration 1.0%): 23.2%

Triethanolamine lauryl sulfate [TEALS]
stabilization effect on proteolytic reagent (relative sensitivity) (Protease type-XXIV [5]; [8]): stabilization effect

C[S+](C)[O-] [DMSO, Dimethylsulfoxide]
decrease in performance of proteolytic reagent (Protease type-XXIV [5]; storage for 4 weeks at 37° C.): almost no decrease in performance
decrease in performance of proteolytic reagent (Protease type-XXIV [5]; stored at 37° C. for 24 hours, FIG. 5): almost no decrease in performance
stabilization effect on proteolytic reagent (relative sensitivity) (Protease type-XXIV [5]; [8]): stabilization effect
storage stability effect (Protease type-XXIV [5]; [7]): one year or more

CC[N+](CC)(CC)Cc1ccccc1.[Br-] [Benzyltriethylammonium bromide]
Effect of γ-globulin (%) (Protease type-XXIV [3]; additive concentration 1.0%): 22.9%

Concanavalin A
Effect of γ-globulin (%) (Protease type-XXIV [3]; additive concentration 0.21 mg/ml): 14.9%
effect of inhibiting a protease reaction with globulin (Protease type-XXIV [4]): effect of inhibiting a protease reaction with globulin

O=S(=O)(O)CCCN1CCN(CCO)CC1 [EPPS]
Relative activity (%) ASO-312 ([1]; Pronase): 31%
Relative activity (%) ASO-312 ([1]; Protease type XXIV): 30%
ascorbic acid eliminating capability after storing (Ascorbic acid oxidase): almost no ascorbic acid eliminating capability
Relative activity (%) ASO-311 ([2]; Pronase): 13%
Relative activity (%) ASO-311 ([2]; Protease type XXIV): 35%

C[C@@H](O)[C@H](N)C(=O)O [Reactive 327th amino acid Threonine]
Reactivity ratio, glycated lysine / glycated valine [6]: 927
